The test concerns the target Recombinant human KIF18A (1-467His-tagged) protein (Homo sapiens (Human), UniProt Q8NI77). Description: KIF18A enzyme assay (microtubule-stimulated ATPase activity, ADP-Glo). It counts as biochemical. Particulars: 30 nM KIF18A, ATP 75 μM, read-out: inhibitory activity against KIF18A IC50. The essentials:
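Baculovirus-expressed human KIF18A (1-467, His-tagged; 30 nM) preincubated 15 min at room temperature with compound (22-point 2-fold series) in pH 7.5 Tris buffer containing 30 μg/mL pig microtubules and 1 μM paclitaxel.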

Consider 42 compounds from patent publication US20250197382A1, “KIF18A INHIBITOR” (WIGEN BIOMEDICINE TECHNOLOGY (SHANGHAI) CO., LTD., priority 2022, published 2025).

Bounds are passed on as bounds.

Chain of Recombinant human KIF18A (1-467His-tagged) protein (Q8NI77 1-467): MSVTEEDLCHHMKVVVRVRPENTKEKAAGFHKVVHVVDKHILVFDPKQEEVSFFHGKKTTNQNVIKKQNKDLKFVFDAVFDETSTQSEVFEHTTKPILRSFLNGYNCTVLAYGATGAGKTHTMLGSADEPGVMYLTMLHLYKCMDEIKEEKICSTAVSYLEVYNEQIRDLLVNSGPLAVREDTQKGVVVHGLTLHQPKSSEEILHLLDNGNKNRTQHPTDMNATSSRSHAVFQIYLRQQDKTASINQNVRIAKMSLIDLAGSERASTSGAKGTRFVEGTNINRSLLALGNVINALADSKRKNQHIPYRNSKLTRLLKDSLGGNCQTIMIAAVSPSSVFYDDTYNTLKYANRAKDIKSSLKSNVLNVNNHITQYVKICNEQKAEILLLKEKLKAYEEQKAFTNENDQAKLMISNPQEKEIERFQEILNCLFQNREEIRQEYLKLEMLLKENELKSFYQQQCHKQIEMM
Chain of Recombinant human KIF18A (1-467His-tagged) protein (P02550 whole entry partner): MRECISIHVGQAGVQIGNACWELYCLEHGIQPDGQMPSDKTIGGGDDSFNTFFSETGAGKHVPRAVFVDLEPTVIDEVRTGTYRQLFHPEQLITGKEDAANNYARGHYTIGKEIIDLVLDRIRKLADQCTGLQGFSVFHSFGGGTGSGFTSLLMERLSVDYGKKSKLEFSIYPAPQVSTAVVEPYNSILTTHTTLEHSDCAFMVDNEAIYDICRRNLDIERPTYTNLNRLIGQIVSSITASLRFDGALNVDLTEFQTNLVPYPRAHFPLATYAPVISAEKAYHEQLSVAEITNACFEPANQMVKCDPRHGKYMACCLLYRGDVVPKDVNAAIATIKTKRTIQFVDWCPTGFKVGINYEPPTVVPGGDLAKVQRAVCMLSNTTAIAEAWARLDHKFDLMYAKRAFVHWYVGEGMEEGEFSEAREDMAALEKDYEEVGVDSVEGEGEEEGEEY
Chain of Recombinant human KIF18A (1-467His-tagged) protein (P02554 whole entry partner): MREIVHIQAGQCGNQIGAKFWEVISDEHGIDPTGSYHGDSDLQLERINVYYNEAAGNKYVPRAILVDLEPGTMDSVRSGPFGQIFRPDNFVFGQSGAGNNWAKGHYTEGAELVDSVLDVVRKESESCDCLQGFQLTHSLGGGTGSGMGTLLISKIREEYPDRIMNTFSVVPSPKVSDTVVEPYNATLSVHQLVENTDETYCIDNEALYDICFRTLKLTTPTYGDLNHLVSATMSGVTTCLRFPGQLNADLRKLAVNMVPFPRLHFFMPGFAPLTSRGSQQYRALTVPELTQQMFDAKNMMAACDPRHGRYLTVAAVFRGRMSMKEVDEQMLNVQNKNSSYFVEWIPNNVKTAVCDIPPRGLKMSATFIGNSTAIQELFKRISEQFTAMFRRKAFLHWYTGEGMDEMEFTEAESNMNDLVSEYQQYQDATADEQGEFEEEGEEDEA

For the compound `CN1CCc2cc(NC(=O)c3ccc(NS(=O)(=O)CCO)cc3N3CCC4(CC3)CC4)nc(N3CCC(F)CC3)c21` [Compound 329], the IC50 (in general, the point on the concentration scale where inhibition reaches its midpoint) was ≤ 100 nM.
With `CC1(F)CCN(c2cc(NC(=O)c3ccc(S(=O)(=O)NCCO)cc3N3CCC4(CC3)CC4)cc3ccoc23)C1` (stereo not drawn) [Compound 152], the IC50 was ≤ 100 nM.
The value for `CC1(F)CCN(c2nc(NC(=O)c3ccc(NS(=O)(=O)CCO)cc3N3CCC4(CC3)CC4)cc3ccoc23)C1` (stereo not drawn) [Compound 200] was ≤ 100 nM; that for `C[C@@H](CO)S(=O)(=O)Nc1ccc(C(=O)Nc2cc3c(c(N4CCC(F)(F)CC4)c2)OCC3)c(N2CCC3(CC2)CC3)c1` [Compound 13] was ≤ 100 nM.
Under `C[C@H](CO)NS(=O)(=O)c1ccc(NC(=O)c2cc3ccoc3c(N3CCC(F)(F)CC3)n2)c(N2CCC3(CC2)CC3)c1` [Compound 254] stands ≤ 100 nM.
For the compound `Cn1ccc2cc(C(=O)Nc3ccc(NS(=O)(=O)CCO)cc3N3CCC4(CC3)CC4)nc(N3CCC(F)CC3)c21` [Compound 489], the IC50 is ≤ 100 nM.
The value for `C[C@@H](CO)S(=O)(=O)Nc1ccc(NC(=O)c2cc3c(c(N4CCC(F)(F)CC4)c2)N(C)CC3)c(N2CCC3(CC2)CC3)c1` [Compound 301] was ≤ 100 nM; that for `C[C@@H]1CN(c2nc(C(=O)Nc3ccc(NS(=O)(=O)CCO)cc3N3CCC4(CC3)CC4)cc3c2N(C)CC3)CCO1` [Compound 354] was ≤ 100 nM; that for `CN1CCc2cc(NC(=O)c3ccc(S(=O)(=O)NCCO)cc3N3CCC4(CC3)CC4)cc(OC3CCC3)c21` [Compound 279] was ≤ 100 nM.
The value for `C[C@H](CO)NS(=O)(=O)c1ccc(C(=O)Nc2cc3c(c(N4CCC(F)(F)CC4)n2)OCC3)c(N2CCC3(CC2)CC3)c1` [Compound 94] was ≤ 100 nM.
Under `C[C@H](CO)NS(=O)(=O)c1ccc(C(=O)Nc2cc3c(c(N4CCO[C@H](C)C4)c2)OCC3)c(N2CCC3(CC2)CC3)c1` [Compound 32] stands ≤ 100 nM; under `O=C(Nc1ccc(S(=O)(=O)NCCO)cc1N1CCC2(CC1)CC2)c1cc2c(c(OCCC(F)(F)F)c1)OCC2` [Compound 53], ≤ 100 nM; under `C[C@@H](CO)S(=O)(=O)Nc1ccc(C(=O)Nc2cc3c(c(N4CCC(F)(F)CC4)c2)N(C)CC3)c(N2CCC3(CC2)CC3)c1` [Compound 269], ≤ 100 nM.
In the case of `C[C@@H]1CN(c2nc(NC(=O)c3ccc(NS(=O)(=O)CCO)cc3N3CCC4(CC3)CC4)cc3ccoc23)CCO1` [Compound 194], the IC50 was ≤ 100 nM.
Under `O=C(Nc1ccc(S(=O)(=O)NCCO)cc1N1CCC2(CC1)CC2)c1cc2c(c(N3CCC(F)CC3)n1)OCC2` [Compound 121] stands ≤ 100 nM; under `Cn1ccc2cc(NC(=O)c3ccc(NS(=O)(=O)CCO)cc3N3CCC4(CC3)CC4)cc(N3CCC(C)(F)C3)c21` (stereo not drawn) [Compound 392], ≤ 100 nM.
Under `CN1CCc2cc(C(=O)Nc3ccc(S(=O)(=O)NCCO)cc3N3CCC4(CC3)CC4)nc(N3CCC(F)CC3)c21` [Compound 377] stands ≤ 100 nM; under `C[C@H]1CN(c2cc(C(=O)Nc3ccc(S(=O)(=O)NCCO)cc3N3CCC4(CC3)CC4)cc3c2OCC3)CCO1` [Compound 51], ≤ 100 nM; under `CN1CCc2cc(C(=O)Nc3ccc(NS(=O)(=O)CCO)cc3N3CCC4(CC3)CC4)cc(OC3CCC3)c21` [Compound 295], ≤ 100 nM.
The value for `O=C(Nc1cc2c(c(N3CCOCC3)c1)OCC2)c1ccc(S(=O)(=O)NCCO)cc1N1CCC2(CC1)CC2` [Compound 28] was ≤ 100 nM; that for `O=C(Nc1ccc(S(=O)(=O)NCCO)cc1N1CCC2(CC1)CC2)c1cc2c(c(OCCC(F)(F)F)n1)OCC2` [Compound 117] was ≤ 100 nM.
As to `O=C(Nc1cc(N2CC3CC3C2)c2occc2c1)c1ccc(NS(=O)(=O)CCO)cc1N1CCC2(CC1)CC2` (stereo not drawn) [Compound 138], the half-maximal inhibitory concentration (IC50) is ≤ 100 nM.
In the case of `C[C@H](CO)S(=O)(=O)Nc1ccc(NC(=O)c2cc3c(c(N4CCC(F)(F)CC4)c2)OCC3)c(N2CCC3(CC2)CC3)c1` [Compound 46], the IC50 was ≤ 100 nM.
Take `C[C@H]1CN(c2nc(C(=O)Nc3ccc(S(=O)(=O)NCCO)cc3N3CCC4(CC3)CC4)cc3ccoc23)CCO1` [Compound 243]: the IC50 is ≤ 100 nM.
The value for `C[C@H](CO)NS(=O)(=O)c1ccc(C(=O)Nc2cc3c(c(N4CCO[C@H](C)C4)n2)OCC3)c(N2CCC3(CC2)CC3)c1` [Compound 96] was ≤ 100 nM.
The value for `O=C(Nc1cc(N2CCC3(CC3)C2)c2occc2c1)c1ccc(S(=O)(=O)NCCO)cc1N1CCC2(CC1)CC2` [Compound 150] was ≤ 100 nM; that for `CN1CCc2cc(C(=O)Nc3ccc(S(=O)(=O)NCCO)cc3N3CCC4(CC3)CC4)nc(OC3CCC3)c21` [Compound 375] was ≤ 100 nM.
For the compound `CC(C)(CO)Nc1nc(C(=O)Nc2ccc(NS(=O)(=O)CCO)cc2N2CCC3(CC2)CC3)cc2c1OCC2` [Compound 107], the IC50 is ≤ 100 nM.
The value for `C[C@H]1CN(c2nc(NC(=O)c3ccc(NS(=O)(=O)CCO)cc3N3CCC4(CC3)CC4)cc3c2N(C)CC3)CCO1` [Compound 323] was ≤ 100 nM.
Under `C[C@@H]1CN(c2cc(NC(=O)c3ccc(S(=O)(=O)N[C@@H](C)CO)cc3N3CCC4(CC3)CC4)cc3c2N(C)CC3)CCO1` [Compound 287] stands ≤ 100 nM; under `C[C@@H]1CN(c2cc(NC(=O)c3ccc(NS(=O)(=O)[C@@H](C)CO)cc3N3CCC4(CC3)CC4)cc3c2N(C)CC3)CCO1` [Compound 271], ≤ 100 nM; under `CC1(F)CCN(c2nc(NC(=O)c3ccc(NS(=O)(=O)CCO)cc3N3CCC4(CC3)CC4)cc3c2OCC3)C1` (stereo not drawn) [Compound 72], ≤ 100 nM.
The value for `C[C@@H]1CN(c2nc(C(=O)Nc3ccc(NS(=O)(=O)[C@@H](C)CO)cc3N3CCC4(CC3)CC4)cc3c2N(C)CC3)CCO1` [Compound 367] was ≤ 100 nM; that for `Cn1ccc2cc(C(=O)Nc3ccc(NS(=O)(=O)CCO)cc3N3CCC4(CC3)CC4)nc(N3CCC4(CC4)C3)c21` [Compound 486] was ≤ 100 nM; that for `C[C@H]1CN(c2cc(NC(=O)c3ccc(NS(=O)(=O)CCO)cc3N3CCC4(CC3)CC4)cc3c2N(C)CC3)CCO1` [Compound 259] was ≤ 100 nM.
With `C[C@H](CO)NS(=O)(=O)c1ccc(NC(=O)c2cc3c(c(N4CCO[C@H](C)C4)n2)N(C)CC3)c(N2CCC3(CC2)CC3)c1` [Compound 384], the half-inhibitory concentration (IC50) is ≤ 100 nM.
Under `C[C@@H]1CN(c2nc(NC(=O)c3ccc(S(=O)(=O)N[C@@H](C)CO)cc3N3CCC4(CC3)CC4)cc3c2N(C)CC3)CCO1` [Compound 351] stands ≤ 100 nM; under `Cn1ccc2cc(C(=O)Nc3ccc(S(=O)(=O)NCCO)cc3N3CCC4(CC3)CC4)cc(N3CCC(F)CC3)c21` [Compound 441], ≤ 100 nM.
The value for `O=C(Nc1cc2ccoc2c(N2CC3CC3C2)n1)c1ccc(NS(=O)(=O)CCO)cc1N1CCC2(CC1)CC2` (stereo not drawn) [Compound 202] was ≤ 100 nM; that for `C[C@@H](CO)NS(=O)(=O)c1ccc(NC(=O)c2cc3c(c(N4CCC(F)(F)CC4)c2)N(C)CC3)c(N2CCC3(CC2)CC3)c1` [Compound 317] was ≤ 100 nM; that for `O=C(Nc1ccc(S(=O)(=O)NCCO)cc1N1CCC2(CC1)CC2)c1cc2c(c(N3CCOCC3)n1)OCC2` [Compound 124] was ≤ 100 nM.
For the compound `C[C@H]1CN(c2cc(C(=O)Nc3ccc(S(=O)(=O)NCCO)cc3N3CCC4(CC3)CC4)cc3ccoc23)CCO1` [Compound 179], the IC50 is ≤ 100 nM.
